Measured values: US3976545A, “1,2,4-Triazol E-3-carboxamides as antiviral agents” (ICN Pharmaceuticals, Inc., priority 1975, dated 1976)
Where two headings read alike, the source gives them in different places.

Assays:
[1] = tested on: Type 13 Rhino; test: CPE inhibition in KB cells, Type 13 Rhino; assay type: cell-based; details: VR >0.5 significant, <0.5 slight activity
Protocol: (§1) They were tested for activity using the virus-induced cytopathogenic effect (CPE) method of Sidwell, et al., (Applied Microbiology 22:797-801, 1971). Briefly, the CPE procedure includes the dissolution of the antiviral agent in a cell culture medium consisting of vitamins, amino acids, serum, buffer, penicillin, streptomycin and indicator dye in water. The virus suspended in the cell culture medium was added to an established monolayer of KB cells, and an equal volume of the antiviral agent was then added within 15 minutes. The infected treated cells were graded following microscopic examination. Controls for each experiment include cell controls (cells and cell culture medium only), virus controls (cells and virus and cell culture medium) and toxicity controls (cells and chemical and cell culture medium).
(§2) The virus rating (VR) system of Sidwell et al, described in Applied Microbiology, supra, was used to evaluate the degree of significance of CPE inhibition.

[2] = tested on: Type 56 Rhino; test: CPE inhibition in KB cells, Type 56 Rhino; assay type: cell-based; details: VR >0.5 significant, <0.5 slight activity
Protocol: as §1, §2

[3] = tested on: mice; details: for MST / Survivors Per Total / Average Lung Consolidation / HA Titer Per ml: Drug + MEM; for Average Lung Consolidation: Day 25, scale of 0-4; for HA Titer Per ml: lung homogenates Day 25
[4] = tested on: Type 1 Herpes; test: CPE inhibition in KB cells, Type 1 Herpes; assay type: cell-based; details: VR >0.5 significant, <0.5 slight activity
Protocol: as §1, §2

[5] = tested on: Vaccinia; assay type: cell-based; details: KB cells, VR >0.5 significant, <0.5 slight activity
[6] = tested on: Type 3 Parainfluenza; test: CPE inhibition in KB cells, Type 3 Parainfluenza; assay type: cell-based; details: VR >0.5 significant, <0.5 slight activity
Protocol: as §1, §2

[7] = tested on: Type 2 Herpes; test: CPE inhibition in KB cells, Type 2 Herpes; assay type: cell-based; details: VR >0.5 significant, <0.5 slight activity
Protocol: as §1, §2

[8] = tested on: Measles; test: Measles virus plaque inhibition (agar overlay); assay type: cell-based; details: Measles morbillivirus, 96 h, day 4; for inhibition at 20 µg/mL: 20 μg/ml; for inhibition at 100 µg/mL: 100 μg/ml; for inhibition at 500 µg/mL: 500 μg/ml
Source text: In experiments with measles virus, the above method was altered in that the infected cells were covered with an agar-serum-bicarbonate overlay containing the antiviral compounds so that viral plaques could be discerned. These plaques were strained with neutral red dye on day 4 and counted, with any reduction in plaque number resulting from exposure to the antiviral compound determined. The methodology for the experiment is as described by Wear et al (Exptl. and Molecular Pathol. 9:405-417, 1968).

[9] = tested on: influenza A2 virus; assay type: in vivo, Female Swiss Mice; details: for Average Lung Consolidation: Day 25, scale of 0-4; for effectiveness against influenza virus: summary in words
[10] = tested on: Type 1A Rhino; test: CPE inhibition in KB cells, Type 1A Rhino; assay type: cell-based; details: VR >0.5 significant, <0.5 slight activity
Protocol: as §1, §2

[11] = in vitro; details: human, kb cells
[12] = tested on: Type 8 Rhino; test: CPE inhibition in KB cells, Type 8 Rhino; assay type: cell-based; details: VR >0.5 significant, <0.5 slight activity
Protocol: as §1, §2

[13] = molecular target: T1, Nucleoside Phosphorylase (Bos taurus, UniProt P55859); test: Nucleoside Phosphorylase assay (conversion of 1,2,4-triazole-3-carboxamide to its 1-β-D-ribofuranosyl nucleoside); assay type: biochemical, calf (spleen); details: pH 7.4, 25°, 5 minutes
T1 construct: purchased Sigma Chemical Co., St. Louis, Mo; host or cells: calf spleen
T1 sequence (P55859 1-289): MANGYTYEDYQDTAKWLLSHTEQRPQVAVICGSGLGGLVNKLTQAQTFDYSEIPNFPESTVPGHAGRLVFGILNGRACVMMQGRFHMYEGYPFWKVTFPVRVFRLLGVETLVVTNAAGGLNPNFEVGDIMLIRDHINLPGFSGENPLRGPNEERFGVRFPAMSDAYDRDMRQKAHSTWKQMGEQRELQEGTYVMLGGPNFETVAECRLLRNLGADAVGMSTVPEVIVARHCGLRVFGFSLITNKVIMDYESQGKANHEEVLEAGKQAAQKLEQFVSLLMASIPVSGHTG
Protocol: 1,2,4-Triazole-3-carboxamide may be converted to 1-β-D-ribofuranosyl- 1,2,4-triazole-3-carboxamide by reaction with the enzyme Nucleoside Phosphorylase at a pH within the range of about 5 to about 9, preferably 7 to 8, at an enzyme concentration of from about 0.015 to about 0.75 mg/ml, preferably about 0.15 mg/ml, and a temperature within the range of about 0° to about 50°C, with the preferred temperature being approximately 25° to about 35°C. Satisfactory results have been obtained when the triazole base is present in a concentration greater than 5×10^^-5 M and ribose-1-phosphate is present at a concentration greater than 2×10^^-5 M. Generally about 0.1 to about 2 hours, preferably about 0.5 to about 1 hour, are required for the reaction. The source of the enzyme may be animal, tissue, or bacteria. The principal bacterial sources are E. coli and […], while a variety of animal sources exist, including beef spleen, rat liver, calf liver, calf thymus, beef liver, monkey brain, horse liver, calf spleen, human erythrocytes, fish skin, and fish muscle. […]
The samples were incubated at 25° for 5 minutes and then frozen in dry ice - isopropanol to stop the reaction. […] Areas of the chromatograms coinciding with 1,2,4-triazole-3-carboxamide were removed and counted to determine the percent of conversion of 1,2,4 -triazole-3-carboxamide to 1-β-D-ribofuranosyl-1,2,4-triazole-3-carboxamide.

[14] = Compound 1, 250 mg/kg/day ip, schedule 1
[15] = Compound 1, 500 mg/kg/day ip, schedule 1
[16] = Compound 1, 1000 mg/kg/day ip, schedule 1
[17] = Compound 1, 250 mg/kg/day ip, Drug + Virus, schedule 1
[18] = Compound 1, 500 mg/kg/day ip, Drug + Virus, schedule 1
[19] = Compound 1, 1000 mg/kg/day ip, Drug + Virus, schedule 1
[20] = Compound 2, 250 mg/kg/day ip, schedule 3
[21] = Compound 2, 500 mg/kg/day ip, schedule 3
[22] = Compound 2, 1000 mg/kg/day ip, schedule 2
[23] = Compound 2, 75 mg/kg/day ip, Drug + Virus, schedule 1
[24] = Compound 2, 250 mg/kg/day ip, Drug + Virus, schedule 3
[25] = Compound 2, 500 mg/kg/day ip, Drug + Virus, schedule 3
[26] = Compound 2, 1000 mg/kg/day ip, Drug + Virus, schedule 2

NC(=O)c1nc[nH]n1 [Compound 1, 1,2,4-Triazole-3-carboxamide]
Virus Rating [1]: 0.3
Virus Rating [2]: 0.3
MST [3, 14]: > 21.0 days
Survivors Per Total [3, 14]: 5/5
MST [3, 15]: > 21.0 days
Survivors Per Total [3, 15]: 5/5
MST [3, 16]: > 21 days
Survivors Per Total [3, 16]: 5/5
toxicity to mice ([3]; concentrations as high as 1000 mg/kg/day, intraperitoneally twice daily for 9 days): nontoxic
Virus Rating [4]: 0.6-0.9
Virus Rating [5]: 0.8
Virus Rating [6]: 0.5-0.7
Virus Rating [7]: 0.4
inhibition at 20 µg/mL [8]: 34%
inhibition at 100 µg/mL [8]: 97%
inhibition at 500 µg/mL [8]: 99%
MST [9, 17]: 17.5 days
Survivors Per Total ([9]; Compound 1, 250 mg/kg/day ip, Drug + Virus, schedule 1 (P<0.05)): 8/10
Average Lung Consolidation [9, 17]: 1.4
MST [9, 18]: 12.0 days
Survivors Per Total ([9]; Compound 1, 500 mg/kg/day ip, Drug + Virus, schedule 1 (P<0.1)): 7/10
Average Lung Consolidation [9, 18]: 2.5
MST [9, 19]: 15 days
Survivors Per Total ([9]; Compound 1, 1000 mg/kg/day ip, Drug + Virus, schedule 1 (P<0.05)): 8/10
Average Lung Consolidation [9, 19]: 2.0
HA Titer Per ml ([9]; Compound 1, 1000 mg/kg/day ip, Drug + Virus, schedule 1, lung homogenates Day 25): 1.3
effectiveness against influenza virus [9]: particularly effective against influenza virus
Virus Rating [10]: 0.4-0.5
MCC [11]: 32 to 1000 µg/mL
Virus Rating [12]: 0.2
% Conversion ([13]; - enzyme): 0.8%
% Conversion ([13]; - ribose-1-P, + enzyme, 80μg): 1.1%

NC(=S)c1nc[nH]n1 [Compound 2, 1,2,4-Triazole-3-thiocarboxamide]
Virus Rating [1]: 0.4
Virus Rating [2]: 0.4
MST [3, 20]: > 21.0 days
Survivors Per Total [3, 20]: 5/5
Average Lung Consolidation [3, 20]: 0.5
HA Titer Per ml [3, 20]: 0
MST [3, 21]: 9.0 days
Survivors Per Total [3, 21]: 4/5
Average Lung Consolidation [3, 21]: 2.0
HA Titer Per ml [3, 21]: 0
MST [3, 22]: 4.2 days
Survivors Per Total [3, 22]: 0/5
toxicity to mice ([3]; concentrations as low as 250 mg/kg/day, intraperitoneally, same treatment regimen (twice daily for 9 days)): moderately toxic as evidenced by weight loss and death
Virus Rating [4]: 0.4-0.8
Virus Rating [5]: 0.5
Virus Rating [6]: 0.2-0.4
Virus Rating [7]: 0.3
inhibition at 20 µg/mL [8]: 5%
inhibition at 100 µg/mL [8]: 98%
inhibition at 500 µg/mL [8]: 100%
MST [9, 23]: > 21.0 days
Survivors Per Total ([9]; Compound 2, 75 mg/kg/day ip, Drug + Virus, schedule 1 (P<0.001)): 10/10
Average Lung Consolidation [9, 23]: 1.0
MST [9, 24]: 9.2 days
Survivors Per Total ([9]; Compound 2, 250 mg/kg/day ip, Drug + Virus, schedule 3 (P<0.2)): 6/10
Average Lung Consolidation [9, 24]: 3.6
MST [9, 25]: 7.6 days
Survivors Per Total ([9]; Compound 2, 500 mg/kg/day ip, Drug + Virus, schedule 3 (P>0.3)): 5/10
Average Lung Consolidation [9, 25]: 2.2
MST [9, 26]: 8.3 days
Survivors Per Total ([9]; Compound 2, 1000 mg/kg/day ip, Drug + Virus, schedule 2 (P>0.3)): 3/10
Average Lung Consolidation [9, 26]: 3.7
effectiveness against influenza virus [9]: particularly effective against influenza virus
Virus Rating [10]: 0.2-0.4
MCC [11]: ≥ 1 µg/mL
Virus Rating [12]: 0.3

NC(=O)c1ncn([C@@H]2O[C@H](CO)[C@@H](O)[C@H]2O)n1 [Compound 3, 1-β-D-Ribofuranosyl-1,2,4-triazole-3-carboxamide]
Virus Rating [1]: 0.5
Virus Rating [2]: 0.9
Virus Rating [4]: 1.0-1.5
Virus Rating [5]: 0.9-1.0
Virus Rating [6]: 0.6-1.0
Virus Rating [7]: 1.3
inhibition at 20 µg/mL [8]: 30%
inhibition at 100 µg/mL [8]: 94%
inhibition at 500 µg/mL [8]: 100%
Virus Rating [10]: 0.6
Virus Rating [12]: 0.8
